The subject of this assay is TYR. The assay can be described thus: Assessment of gene modulation in normal human epidermal melanocytes (RT-qPCR, PCR array mQPA H-Melanocyte-64). The format is cell-based. To be noted: NHEM cells, 72 hours treatment. How it is done: Normal human epidermal melanocytes were cultivated for 24 hours. Culture medium was then removed and replaced by fresh medium containing the active ingredient to be evaluated or exempt of it (control). Cells were cultivated for additional 72 hours. All experimental conditions were performed in triplicate. At the end of the cultivation, the cells were harvested and washed with phosphate buffered saline (PBS) solution and immediately frozen at -80 °C. The expression of selected markers was analyzed using RT-qPCR method on mRNA extracted from cells layer for each treatment condition. The differential expression analysis was performed by PCR arrays of the screening format "mQPA H-Melanocyte-64", which focuses on 64 genes selected for their importance in pigmentation and melanocyte biology. Total RNA was extracted from each sample using TRI-Reagent®. The amount and quality of the RNA was evaluated using a lab-on-a-chip Bioanalyzer (Agilent technologies). Potential contaminants traces of DNA were removed […] The incorporation of fluorescence in amplified DNA was measured continuously during the PCR cycles. […] The value selected for RE calculations is the "output point" (Ct) of the fluorescence curve. For a given marker, the highest is the cycle number; the lowest, is the mRNA quantity. The RE value is expressed in arbitrary units (AU) according to the equation: (((1)/(2)))^NC x 10^6 [formula] Where NC is the number of cycles.
On the technique in general: Real-time PCR tracks product formation cycle by cycle.

Setting [1] is: resveratrol 5 µg/ml, sodium-ascorbyl-phosphate 1 mg/ml, combination 5 µg/ml + 1 mg/ml, read-out: TYR (expression ratio compared to control of the gene TYR).
[2] abbreviates: resveratrol 5 micrograms/ml, sodium-ascorbyl-phosphate 1mg/ml, alone or combined, positive = up-regulation, negative = down-regulation, read-out: up-regulation / down-regulation of TYR when compared to untreated cells.

The structures appear in SMILES notation. Read-outs that look alike come from different tables or passages of the source.

As for `O=C1O[C@H]([C@@H](O)CO)C(O)=C1OP(=O)(O)O` [Sodium-ascorbyl-phosphate], the activation at 1000 µg/mL reads like this: under setting [1], 30%; under setting [2], 30%.

Consider `Oc1ccc(C=Cc2cc(O)cc(O)c2)cc1` [Resveratrol, 3,4',5 trihydroxystilbene], for which the activation at 5 µg/mL came to 25% under setting [1] and 25% under setting [2].

The values are drawn from EP2522335A1, “Use of resveratrol and sodium-ascorbyl-phophate” (DSM IP Assets B.V., priority 2011, dated 2012).
